Key:
Type in all cases: binding
AtD14 (DWARF14) [1] = target: T1, AtD14 (DWARF14) (Arabidopsis thaliana, UniProt Q9SQR3); assay: intrinsic tryptophan fluorescence Kd
T1 sequence (Q9SQR3 2-266): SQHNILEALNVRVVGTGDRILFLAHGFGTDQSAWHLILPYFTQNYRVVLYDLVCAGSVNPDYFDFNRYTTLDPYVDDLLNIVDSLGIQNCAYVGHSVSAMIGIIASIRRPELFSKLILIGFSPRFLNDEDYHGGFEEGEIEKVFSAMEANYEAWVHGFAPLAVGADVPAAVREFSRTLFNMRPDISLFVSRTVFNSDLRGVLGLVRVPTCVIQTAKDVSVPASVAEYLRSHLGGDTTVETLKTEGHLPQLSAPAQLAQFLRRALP

OsD14 = target: T2, OsD14 (Oryza sativa, UniProt Q10QA5); assay: nanoDSF Tm increase
T2 sequence (Q10QA5 1-318): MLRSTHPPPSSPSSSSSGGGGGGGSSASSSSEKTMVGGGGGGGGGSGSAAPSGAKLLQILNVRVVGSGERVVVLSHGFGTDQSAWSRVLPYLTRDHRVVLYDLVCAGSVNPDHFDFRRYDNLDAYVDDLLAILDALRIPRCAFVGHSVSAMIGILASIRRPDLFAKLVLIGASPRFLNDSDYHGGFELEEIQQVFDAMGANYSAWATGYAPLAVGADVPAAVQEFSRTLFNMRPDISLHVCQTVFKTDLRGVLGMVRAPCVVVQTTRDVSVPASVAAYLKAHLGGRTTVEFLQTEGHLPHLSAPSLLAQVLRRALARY

AtD14 (DWARF14) [2] = target: T1, AtD14 (DWARF14); assay: co-crystal structure

CC1=CC(O/C=C2/C(=O)OC3c4ccccc4CC23)OC1=O (racemic) [(±)-GR24]
Kd (AtD14 (DWARF14) [1]): 0.99 µM

CC(=O)/C=C/C=C(C)/C=C/C1=C(C)CC(O)CC1(C)C (stereo in doubt) [zaxinone]
nanoDSF Tm increase; tryptophan fluorescence (OsD14): tryptophan fluorescence assays confirmed the direct interaction between OsD14 and zaxinone | Kd (AtD14 (DWARF14) [2]): 1.8 µM
